Results taken from US11040035B2, “3-oxo-2,6-diphenyl-2,3-dihydropyridazine-4-carboxamides” (BAYER PHARMA AKTIENGESELLSCHAFT, priority 2016, dated 2021).

Legend:
AHR [1] = target: T1, AHR (Homo sapiens, UniProt P35869); test: In vitro assay 2: agonism in human cell line (transactivation assay); conditions: Assay 2: AHR-luc Hum Agonism IC50 [M], no kynurenic acid, 20 hours, firefly luciferase
T1 sequence (P35869 11-848): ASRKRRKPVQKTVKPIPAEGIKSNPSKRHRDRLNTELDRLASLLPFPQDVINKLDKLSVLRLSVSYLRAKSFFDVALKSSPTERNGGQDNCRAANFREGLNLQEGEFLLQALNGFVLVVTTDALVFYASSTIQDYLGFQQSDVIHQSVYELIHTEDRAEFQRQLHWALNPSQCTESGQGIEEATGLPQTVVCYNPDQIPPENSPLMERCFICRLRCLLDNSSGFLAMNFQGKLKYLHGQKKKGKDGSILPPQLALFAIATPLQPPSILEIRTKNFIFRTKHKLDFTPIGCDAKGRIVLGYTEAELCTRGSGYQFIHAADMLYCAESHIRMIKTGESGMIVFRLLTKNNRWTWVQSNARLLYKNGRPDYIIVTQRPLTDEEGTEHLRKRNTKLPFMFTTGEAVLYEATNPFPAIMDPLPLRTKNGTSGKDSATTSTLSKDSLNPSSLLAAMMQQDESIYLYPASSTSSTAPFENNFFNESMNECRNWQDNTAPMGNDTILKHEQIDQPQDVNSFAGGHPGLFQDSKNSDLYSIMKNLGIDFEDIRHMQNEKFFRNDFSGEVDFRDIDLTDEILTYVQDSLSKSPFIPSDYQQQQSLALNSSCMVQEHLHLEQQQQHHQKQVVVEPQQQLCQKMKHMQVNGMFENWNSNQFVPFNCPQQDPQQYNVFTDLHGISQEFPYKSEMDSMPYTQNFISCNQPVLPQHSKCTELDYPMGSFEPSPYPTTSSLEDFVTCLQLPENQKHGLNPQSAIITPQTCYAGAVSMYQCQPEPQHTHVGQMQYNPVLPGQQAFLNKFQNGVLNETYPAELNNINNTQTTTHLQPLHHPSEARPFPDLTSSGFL

AHR [2] = target: T1, AHR; test: In vitro assay 1: antagonism in human cell line (transactivation assay, kynurenic acid prestimulated); conditions: Assay 1: AHR-luc Hum Antagonism IC50 [M], 150 μM kynurenic acid, 20 hours, firefly luciferase

Compound | IC50 (AHR [1]) [M] | IC50 (AHR [2]) [M]
CC(C)C(O)CNC(=O)c1cc(-c2ccc(Cl)cc2)nn(-c2cc(F)cc(F)c2)c1=O (centres unmarked) [Example 48, 6-(4-Chlorophenyl)-2-(3,5-difluorophenyl)-N-(2-hydroxy-3-methylbutyl)-3-oxo-2,3-dihydropyridazine-4-carboxamide] | > 2e-05 | 4.93e-08
Cc1ccc(-c2cc(C(=O)NCC(O)C(F)(F)F)c(=O)n(-c3cc(F)cc(F)c3)n2)cc1 (centres unmarked) [Example 52, 2-(3,5-Difluorophenyl)-6-(4-methylphenyl)-3-oxo-N-(3,3,3-trifluoro-2-hydroxypropyl)-2,3-dihydropyridazine-4-carboxamide] | > 2e-05 | 1.17e-08
Cc1ccc(-c2cc(C(=O)NCC(O)C(C)C)c(=O)n(-c3cc(F)cc(F)c3)n2)cc1 (centres unmarked) [Example 56, 2-(3,5-Difluorophenyl)-N-(2-hydroxy-3-methylbutyl)-6-(4-methylphenyl)-3-oxo-2,3-dihydropyridazine-4-carboxamide] | > 2e-05 | 4e-08
C[C@@H](CO)NC(=O)c1cc(-c2ccc(Cl)cc2)nn(-c2cccc(Cl)c2)c1=O [Example 66, 2-(3-Chlorophenyl)-6-(4-chlorophenyl)-N-[(2S)-1-hydroxypropan-2-yl]-3-oxo-2,3-dihydropyridazine-4-carboxamide] | > 2e-05 | 1.65e-07
CC(C)[C@@H](CO)NC(=O)c1cc(-c2ccc(Cl)cc2)nn(-c2ccccc2)c1=O [Example 75, 6-(4-chlorophenyl)-N-[(2S)-1-hydroxy-3-methylbutan-2-yl]-3-oxo-2-phenyl-2,3-dihydropyridazine-4-carboxamide] | > 2e-05 | 3.45e-08
O=C(NCC(O)C(F)(F)F)c1cc(-c2ccc(Cl)cc2)nn(-c2ccccc2)c1=O (centres unmarked) [Example 76, 6-(4-chlorophenyl)-3-oxo-2-phenyl-N-(3,3,3-trifluoro-2-hydroxypropyl)-2,3-dihydropyridazine-4-carboxamide] | > 2e-05 | 9.37e-08
C[C@@H](CO)NC(=O)c1cc(-c2ccc(Cl)cc2)nn(-c2ccccc2)c1=O [Example 80, 6-(4-chlorophenyl)-N-[(2S)-1-hydroxypropan-2-yl]-3-oxo-2-phenyl-2,3-dihydropyridazine-4-carboxamide] | > 2e-05 | 2.14e-07
O=C(NCC(O)C(F)(F)F)c1cc(-c2ccc(OC(F)F)cc2)nn(-c2cccc(F)c2)c1=O (centres unmarked) [Example 120, 6-[4-(Difluoromethoxy)phenyl]-2-(3-fluorophenyl)-3-oxo-N-(3,3,3-trifluoro-2-hydroxypropyl)-2,3-dihydropyridazine-4-carboxamide] | > 2e-05 | 4.47e-08
COc1ccc(-c2cc(C(=O)NCC(O)C(F)(F)F)c(=O)n(-c3cccc(F)c3)n2)cc1 (centres unmarked) [Example 126, 2-(3-Fluorophenyl)-6-(4-methoxyphenyl)-3-oxo-N-(3,3,3-trifluoro-2-hydroxypropyl)-2,3-dihydropyridazine-4-carboxamide] | > 2e-05 | 5.13e-08
COc1ccc(-c2cc(C(=O)N[C@@H]3CCC[C@@H]3O)c(=O)n(-c3cccc(F)c3)n2)cc1 [Example 139, 2-(3-Fluorophenyl)-N-[(1R,2S)-2-hydroxycyclopentyl]-6-(4-methoxyphenyl)-3-oxo-2,3-dihydropyridazine-4-carboxamide] | > 2e-05 | 6.97e-08
O=C(NC(CO)C1CCOC1)c1cc(-c2ccc(OC(F)F)cc2)nn(-c2cccc(F)c2)c1=O (centres unmarked) [Example 144, 6-[4-(Difluoromethoxy)phenyl]-2-(3-fluorophenyl)-N-{(2-hydroxy-1-tetrahydrofuran-3-yl)ethyl}-3-oxo-2,3-dihydropyridazine-4-carboxamide] | > 2e-05 | 8.37e-08

The remaining lines, values ahead:

IC50 (AHR [1]) [M] | IC50 (AHR [2]) [M] | Compound
> 2e-05 | 4.44e-09 | CC(C)[C@@H](CO)NC(=O)c1cc(-c2ccc(C(F)F)cc2)nn(-c2cccc(F)c2)c1=O [Example 91, 6-[4-(Difluoromethyl)phenyl]-2-(3-fluorophenyl)-N-[(2S)-1-hydroxy-3-methylbutan-2-yl]-3-oxo-2,3-dihydropyridazine-4-carboxamide]
> 2e-05 | 1.2e-08 | CC[C@@H](CO)NC(=O)c1cc(-c2ccc(C(F)F)cc2)nn(-c2cccc(F)c2)c1=O [Example 92, 6-[4-(Difluoromethyl)phenyl]-2-(3-fluorophenyl)-N-[(2S)-1-hydroxybutan-2-yl]-3-oxo-2,3-dihydropyridazine-4-carboxamide]
> 2e-05 | 3.02e-08 | C[C@@H](CO)NC(=O)c1cc(-c2ccc(C(F)F)cc2)nn(-c2cccc(F)c2)c1=O [Example 93, 6-[4-(Difluoromethyl)phenyl]-2-(3-fluorophenyl)-N-[(2S)-1-hydroxypropan-2-yl]-3-oxo-2,3-dihydropyridazine-4-carboxamide]
> 2e-05 | 1.54e-08 | O=C(NCC(O)C(F)(F)F)c1cc(-c2ccc(C(F)F)cc2)nn(-c2cccc(F)c2)c1=O (centres unmarked) [Example 94, 6-[4-(Difluoromethyl)phenyl]-2-(3-fluorophenyl)-3-oxo-N-(3,3,3-trifluoro-2-hydroxypropyl)-2,3-dihydropyridazine-4-carboxamide]
> 2e-05 | 1.09e-08 | COc1ccc(-c2cc(C(=O)NC(CO)C(F)(F)F)c(=O)n(-c3cccc(F)c3)n2)cc1 (centres unmarked) [Example 100, 2-(3-Fluorophenyl)-6-(4-methoxyphenyl)-3-oxo-N-(1,1,1-trifluoro-3-hydroxypropan-2-yl)-2,3-dihydropyridazine-4-carboxamide]
> 2e-05 | 1.79e-08 | CC(C)[C@@H](CO)NC(=O)c1cc(-c2ccc(OC(F)F)cc2)nn(-c2cccc(F)c2)c1=O [Example 110, 6-[4-(Difluoromethoxy)phenyl]-2-(3-fluorophenyl)-N-[(2S)-1-hydroxy-3-methylbutan-2-yl]-3-oxo-2,3-dihydropyridazine-4-carboxamide]
> 2e-05 | 1.8e-08 | COc1ccc(-c2cc(C(=O)N[C@H](CO)C(C)C)c(=O)n(-c3cccc(F)c3)n2)cc1 [Example 113, 2-(3-Fluorophenyl)-N-[(2S)-1-hydroxy-3-methylbutan-2-yl]-6-(4-methoxyphenyl)-3-oxo-2,3-dihydropyridazine-4-carboxamide]
> 2e-05 | 1.36e-07 | C[C@H](O)[C@H](CO)NC(=O)c1cc(-c2ccc(Cl)cc2)nn(-c2cccc(F)c2)c1=O [Example 132, 6-(4-Chlorophenyl)-N-[(2S,3S)-1,3-dihydroxybutan-2-yl]-2-(3-fluorophenyl)-3-oxo-2,3-dihydropyridazine-4-carboxamide]
> 2e-05 | 4.99e-08 | CC[C@@H](CO)NC(=O)c1cc(-c2ccc(OC(F)F)cc2)nn(-c2cccc(F)c2)c1=O [Example 137, 6-[4-(Difluoromethoxy)phenyl]-2-(3-fluorophenyl)-N-[(2S)-1-hydroxybutan-2-yl]-3-oxo-2,3-dihydropyridazine-4-carboxamide]
> 2e-05 | 5.02e-08 | COc1ccc(-c2cc(C(=O)NC(C)C(C)O)c(=O)n(-c3cccc(F)c3)n2)cc1 (centres unmarked) [Example 138, 2-(3-Fluorophenyl)-N-(3-hydroxybutan-2-yl)-6-(4-methoxyphenyl)-3-oxo-2,3-dihydropyridazine-4-carboxamide]
> 2e-05 | 2.05e-07 | CC(O)C(C)NC(=O)c1cc(-c2ccc(OC(F)F)cc2)nn(-c2cccc(F)c2)c1=O (centres unmarked) [Example 140, 6-[4-(Difluoromethoxy)phenyl]-2-(3-fluorophenyl)-N-(3-hydroxybutan-2-yl)-3-oxo-2,3-dihydropyridazine-4-carboxamide]
